pKd: −log10 of the molar value.
Assays:
[1] = molecular target: T1, Casein kinase II subunit alpha (Homo sapiens, UniProt P68400); assay: Displacement of ARC-1504/ARC-1513-5O from CK2alpha (unknown origin) (1 to 335 residues) after 15 to 60 mins by luminescence assay
Target sequence in this assay (P68400 whole entry, the tested form may be a part): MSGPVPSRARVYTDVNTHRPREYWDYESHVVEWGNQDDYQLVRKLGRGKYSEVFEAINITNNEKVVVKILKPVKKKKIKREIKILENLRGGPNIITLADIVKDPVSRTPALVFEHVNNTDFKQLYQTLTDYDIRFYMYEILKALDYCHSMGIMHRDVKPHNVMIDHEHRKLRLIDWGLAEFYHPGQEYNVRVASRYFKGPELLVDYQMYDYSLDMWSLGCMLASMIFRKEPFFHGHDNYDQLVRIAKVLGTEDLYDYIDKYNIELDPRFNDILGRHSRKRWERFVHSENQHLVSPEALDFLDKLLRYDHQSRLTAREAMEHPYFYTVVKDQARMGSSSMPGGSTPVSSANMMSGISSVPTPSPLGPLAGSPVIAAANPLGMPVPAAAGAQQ

[2] = molecular target: T1, Casein kinase II subunit alpha; assay: Displacement of ARC-1504/ARC-1513-5O from CK2alpha (unknown origin) (1 to 335 residues) assessed as photoluminescence lifetime using non-deoxygenated solution after 15 to 60 mins by luminescence assay
Target sequence in this assay (P68400 whole entry, looked up, the tested form may be a part): as the sequence (P68400 whole entry, the tested form may be a part) above

[3] = molecular target: T1, Casein kinase II subunit alpha; assay: Inhibition of human CK2alpha assessed as enzyme residual activity at 100 nM by radiometric filter binding assay relative to control
Target sequence in this assay (P68400 whole entry, looked up, the tested form may be a part): as the sequence (P68400 whole entry, the tested form may be a part) above

[4] = molecular target: Glycogen synthase kinase-3 beta (Homo sapiens) (UniProt P49841); assay: Inhibition of human GSK3beta assessed as enzyme residual activity at 100 nM by radiometric filter binding assay relative to control
Glycogen synthase kinase-3 beta (Homo sapiens), sequence (P49841 whole entry, looked up): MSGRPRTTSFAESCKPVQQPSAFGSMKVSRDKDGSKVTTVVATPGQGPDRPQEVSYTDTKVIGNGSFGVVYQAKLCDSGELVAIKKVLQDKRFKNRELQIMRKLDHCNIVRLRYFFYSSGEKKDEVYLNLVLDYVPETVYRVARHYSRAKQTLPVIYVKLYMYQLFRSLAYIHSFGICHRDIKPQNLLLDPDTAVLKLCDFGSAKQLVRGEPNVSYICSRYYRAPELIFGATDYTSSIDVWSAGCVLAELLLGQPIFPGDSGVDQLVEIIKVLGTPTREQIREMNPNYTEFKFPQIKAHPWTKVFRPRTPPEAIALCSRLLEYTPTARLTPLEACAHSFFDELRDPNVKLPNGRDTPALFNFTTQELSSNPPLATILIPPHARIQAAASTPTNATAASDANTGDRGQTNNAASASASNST

[5] = molecular target: Homeodomain-interacting protein kinase 2 (Homo sapiens) (UniProt Q9H2X6); assay: Inhibition of human HIPK2 assessed as enzyme residual activity at 100 nM by radiometric filter binding assay relative to control
[6] = molecular target: Myosin light chain kinase, smooth muscle (Homo sapiens) (UniProt Q15746); assay: Inhibition of human SmMLCK assessed as enzyme residual activity at 100 nM by radiometric filter binding assay relative to control
[7] = molecular target: AMP-activated protein kinase, AMPK (Homo sapiens) (UniProt P54646+O43741+P54619+Q9UGJ0+Q9Y478+Q13131+Q9UGI9); assay: Inhibition of human AMPK assessed as enzyme residual activity at 100 nM by radiometric filter binding assay relative to control; format: protein-complex assay
[8] = molecular target: Mitogen-activated protein kinase kinase kinase 11 (Homo sapiens) (UniProt Q16584); assay: Inhibition of human MLK3 assessed as enzyme residual activity at 100 nM by radiometric filter binding assay relative to control
[9] = molecular target: Serine/threonine-protein kinase PLK1 (Homo sapiens) (UniProt P53350); assay: Inhibition of human PLK1 assessed as enzyme residual activity at 100 nM by radiometric filter binding assay relative to control
[10] = molecular target: Receptor-interacting serine/threonine-protein kinase 2 (Homo sapiens) (UniProt O43353); assay: Inhibition of human RIPK2 assessed as enzyme residual activity at 100 nM by radiometric filter binding assay relative to control
[11] = molecular target: Dual specificity protein kinase TTK (Homo sapiens) (UniProt P33981); assay: Inhibition of human TTK assessed as enzyme residual activity at 100 nM by radiometric filter binding assay relative to control
[12] = molecular target: Dual specificity mitogen-activated protein kinase kinase 1 (Homo sapiens) (UniProt Q02750); assay: Inhibition of human MKK1 assessed as enzyme residual activity at 100 nM by radiometric filter binding assay relative to control
Dual specificity mitogen-activated protein kinase kinase 1 (Homo sapiens), sequence (Q02750 whole entry): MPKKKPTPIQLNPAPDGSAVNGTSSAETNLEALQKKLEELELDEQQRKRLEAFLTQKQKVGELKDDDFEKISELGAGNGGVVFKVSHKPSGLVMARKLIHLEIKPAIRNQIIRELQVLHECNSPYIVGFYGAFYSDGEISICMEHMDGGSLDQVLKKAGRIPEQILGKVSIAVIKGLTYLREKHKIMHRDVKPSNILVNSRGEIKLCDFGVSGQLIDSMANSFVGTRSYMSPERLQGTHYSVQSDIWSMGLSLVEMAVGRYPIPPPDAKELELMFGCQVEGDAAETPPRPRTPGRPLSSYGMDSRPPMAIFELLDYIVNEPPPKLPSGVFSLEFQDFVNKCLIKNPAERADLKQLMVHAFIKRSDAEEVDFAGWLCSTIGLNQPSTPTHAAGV

[13] = molecular target: Serine/threonine-protein kinase pim-1 (Homo sapiens) (UniProt P11309); assay: Inhibition of human PIM1 assessed as enzyme residual activity at 100 nM by radiometric filter binding assay relative to control
Serine/threonine-protein kinase pim-1 (Homo sapiens), sequence (P11309 whole entry, looked up): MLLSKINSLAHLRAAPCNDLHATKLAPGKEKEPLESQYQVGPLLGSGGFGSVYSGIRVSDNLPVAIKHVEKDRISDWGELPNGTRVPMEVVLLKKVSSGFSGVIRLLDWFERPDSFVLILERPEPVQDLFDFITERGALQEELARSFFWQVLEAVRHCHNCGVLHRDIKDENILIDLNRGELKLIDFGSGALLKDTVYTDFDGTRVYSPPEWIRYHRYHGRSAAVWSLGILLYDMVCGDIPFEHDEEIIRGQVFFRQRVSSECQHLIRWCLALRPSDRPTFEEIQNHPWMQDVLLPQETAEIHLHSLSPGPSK

[14] = molecular target: Protein kinase C alpha type (Homo sapiens) (UniProt P17252); assay: Inhibition of human PKCalpha assessed as enzyme residual activity at 100 nM by radiometric filter binding assay relative to control
[15] = molecular target: Serine/threonine-protein kinase Chk2 (Homo sapiens) (UniProt O96017); assay: Inhibition of human CHK2 assessed as enzyme residual activity at 100 nM by radiometric filter binding assay relative to control
[16] = molecular target: Rho-associated protein kinase 2 (Rattus norvegicus) (UniProt Q62868); assay: Inhibition of rat ROCK2 assessed as enzyme residual activity at 100 nM by radiometric filter binding assay relative to control
Rho-associated protein kinase 2 (Rattus norvegicus), sequence (Q62868 whole entry, looked up): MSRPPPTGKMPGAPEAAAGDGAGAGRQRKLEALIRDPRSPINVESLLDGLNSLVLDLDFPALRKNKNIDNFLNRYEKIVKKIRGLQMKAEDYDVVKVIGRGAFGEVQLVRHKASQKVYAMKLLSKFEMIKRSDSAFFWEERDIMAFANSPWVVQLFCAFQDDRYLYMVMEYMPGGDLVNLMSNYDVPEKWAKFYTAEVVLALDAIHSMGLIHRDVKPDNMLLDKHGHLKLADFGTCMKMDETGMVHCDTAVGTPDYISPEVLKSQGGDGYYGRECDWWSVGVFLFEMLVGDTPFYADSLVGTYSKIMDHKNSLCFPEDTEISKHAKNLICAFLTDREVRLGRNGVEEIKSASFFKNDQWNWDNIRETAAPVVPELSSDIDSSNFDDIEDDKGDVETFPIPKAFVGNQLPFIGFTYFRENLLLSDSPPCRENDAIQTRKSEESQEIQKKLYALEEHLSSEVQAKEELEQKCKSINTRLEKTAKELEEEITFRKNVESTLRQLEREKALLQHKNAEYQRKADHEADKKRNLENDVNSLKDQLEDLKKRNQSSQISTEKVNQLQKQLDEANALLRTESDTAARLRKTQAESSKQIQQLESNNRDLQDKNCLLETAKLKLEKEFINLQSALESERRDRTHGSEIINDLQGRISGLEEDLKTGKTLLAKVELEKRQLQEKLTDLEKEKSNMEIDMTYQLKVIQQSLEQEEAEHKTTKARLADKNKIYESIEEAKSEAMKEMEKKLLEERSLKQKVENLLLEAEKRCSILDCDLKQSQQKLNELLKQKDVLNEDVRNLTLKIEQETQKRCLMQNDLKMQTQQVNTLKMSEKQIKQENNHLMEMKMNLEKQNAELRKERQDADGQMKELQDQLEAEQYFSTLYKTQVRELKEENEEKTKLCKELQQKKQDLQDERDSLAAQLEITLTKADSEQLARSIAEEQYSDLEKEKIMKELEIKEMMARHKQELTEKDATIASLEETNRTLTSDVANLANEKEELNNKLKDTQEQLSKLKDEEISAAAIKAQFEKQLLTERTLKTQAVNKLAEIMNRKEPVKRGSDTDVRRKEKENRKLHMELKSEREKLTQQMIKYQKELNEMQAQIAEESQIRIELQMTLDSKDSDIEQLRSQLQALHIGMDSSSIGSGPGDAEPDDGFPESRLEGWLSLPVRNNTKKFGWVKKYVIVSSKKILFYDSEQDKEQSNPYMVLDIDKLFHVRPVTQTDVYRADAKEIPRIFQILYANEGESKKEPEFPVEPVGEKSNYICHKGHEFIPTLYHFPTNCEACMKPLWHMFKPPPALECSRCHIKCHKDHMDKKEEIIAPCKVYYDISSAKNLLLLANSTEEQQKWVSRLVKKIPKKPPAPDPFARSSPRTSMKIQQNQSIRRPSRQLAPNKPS

[17] = molecular target: MAP/microtubule affinity-regulating kinase 3 (Homo sapiens) (UniProt P27448); assay: Inhibition of human MARK3 assessed as enzyme residual activity at 100 nM by radiometric filter binding assay relative to control
[18] = molecular target: Serine/threonine-protein kinase 3 (Homo sapiens) (UniProt Q13188); assay: Inhibition of human MST2 assessed as enzyme residual activity at 100 nM by radiometric filter binding assay relative to control
[19] = molecular target: Serine/threonine-protein kinase PAK 4 (Homo sapiens) (UniProt O96013); assay: Inhibition of human PAK4 assessed as enzyme residual activity at 100 nM by radiometric filter binding assay relative to control
Serine/threonine-protein kinase PAK 4 (Homo sapiens), sequence (O96013 whole entry, looked up): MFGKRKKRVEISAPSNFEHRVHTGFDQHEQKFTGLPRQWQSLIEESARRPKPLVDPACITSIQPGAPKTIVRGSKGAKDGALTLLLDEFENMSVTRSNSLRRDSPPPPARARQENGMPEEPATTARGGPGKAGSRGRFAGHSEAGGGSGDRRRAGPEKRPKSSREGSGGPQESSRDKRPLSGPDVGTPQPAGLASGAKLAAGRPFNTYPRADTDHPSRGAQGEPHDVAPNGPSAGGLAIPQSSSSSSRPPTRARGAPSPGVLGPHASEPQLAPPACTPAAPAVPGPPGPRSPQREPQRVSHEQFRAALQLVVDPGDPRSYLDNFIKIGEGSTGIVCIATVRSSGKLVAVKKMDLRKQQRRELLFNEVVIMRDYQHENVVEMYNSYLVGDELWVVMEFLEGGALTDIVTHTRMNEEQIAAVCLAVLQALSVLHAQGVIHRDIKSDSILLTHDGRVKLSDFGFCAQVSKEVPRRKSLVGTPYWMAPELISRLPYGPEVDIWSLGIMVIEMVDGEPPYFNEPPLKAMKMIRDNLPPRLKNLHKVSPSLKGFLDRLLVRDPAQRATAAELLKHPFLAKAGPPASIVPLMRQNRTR

[20] = molecular target: Interleukin-1 receptor-associated kinase 4 (Homo sapiens) (UniProt Q9NWZ3); assay: Inhibition of human IRAK4 assessed as enzyme residual activity at 100 nM by radiometric filter binding assay relative to control
[21] = molecular target: Serine/threonine-protein kinase Nek6 (Homo sapiens) (UniProt Q9HC98); assay: Inhibition of human NEK6 assessed as enzyme residual activity at 100 nM by radiometric filter binding assay relative to control
Serine/threonine-protein kinase Nek6 (Homo sapiens), sequence (Q9HC98 whole entry): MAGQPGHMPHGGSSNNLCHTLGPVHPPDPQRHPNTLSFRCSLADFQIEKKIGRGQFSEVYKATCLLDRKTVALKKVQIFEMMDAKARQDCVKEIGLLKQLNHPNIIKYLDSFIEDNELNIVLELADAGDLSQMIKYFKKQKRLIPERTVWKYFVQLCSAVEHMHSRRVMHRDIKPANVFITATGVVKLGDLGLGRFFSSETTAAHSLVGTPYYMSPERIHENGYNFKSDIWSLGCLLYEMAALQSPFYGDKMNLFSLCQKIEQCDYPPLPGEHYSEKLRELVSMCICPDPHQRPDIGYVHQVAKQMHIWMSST

[22] = molecular target: Proto-oncogene tyrosine-protein kinase Src (Homo sapiens) (UniProt P12931); assay: Inhibition of human SRC assessed as enzyme residual activity at 100 nM by radiometric filter binding assay relative to control
[23] = molecular target: Eukaryotic elongation factor 2 kinase (Homo sapiens) (UniProt O00418); assay: Inhibition of human EF2K assessed as enzyme residual activity at 100 nM by radiometric filter binding assay relative to control
[24] = molecular target: Casein kinase I isoform delta (Homo sapiens) (UniProt P48730); assay: Inhibition of human CK1delta assessed as enzyme residual activity at 100 nM by radiometric filter binding assay relative to control
[25] = molecular target: Serine/threonine-protein kinase N2 (Homo sapiens) (UniProt Q16513); assay: Inhibition of human PRK2 assessed as enzyme residual activity at 100 nM by radiometric filter binding assay relative to control
[26] = molecular target: Calcium/calmodulin-dependent protein kinase type 1 (Homo sapiens) (UniProt Q14012); assay: Inhibition of human CaMK1alpha assessed as enzyme residual activity at 100 nM by radiometric filter binding assay relative to control
[27] = molecular target: Receptor tyrosine-protein kinase erbB-4 (Homo sapiens) (UniProt Q15303); assay: Inhibition of human HER4 assessed as enzyme residual activity at 100 nM by radiometric filter binding assay relative to control
[28] = molecular target: Ribosomal protein S6 kinase alpha-5 (Homo sapiens) (UniProt O75582); assay: Inhibition of human MSK1 assessed as enzyme residual activity at 100 nM by radiometric filter binding assay relative to control
[29] = molecular target: Calcium/calmodulin-dependent protein kinase kinase 2 (Homo sapiens) (UniProt Q96RR4); assay: Inhibition of human CaMKKbeta assessed as enzyme residual activity at 100 nM by radiometric filter binding assay relative to control
[30] = molecular target: Aurora kinase B (Homo sapiens) (UniProt Q96GD4); assay: Inhibition of human AurB assessed as enzyme residual activity at 100 nM by radiometric filter binding assay relative to control
[31] = molecular target: Insulin-like growth factor 1 receptor (Homo sapiens) (UniProt P08069); assay: Inhibition of human IGF1R assessed as enzyme residual activity at 100 nM by radiometric filter binding assay relative to control
[32] = molecular target: Serine/threonine-protein kinase D1 (Homo sapiens) (UniProt Q15139); assay: Inhibition of human PKD1 assessed as enzyme residual activity at 100 nM by radiometric filter binding assay relative to control
Serine/threonine-protein kinase D1 (Homo sapiens), sequence (Q15139 whole entry, looked up): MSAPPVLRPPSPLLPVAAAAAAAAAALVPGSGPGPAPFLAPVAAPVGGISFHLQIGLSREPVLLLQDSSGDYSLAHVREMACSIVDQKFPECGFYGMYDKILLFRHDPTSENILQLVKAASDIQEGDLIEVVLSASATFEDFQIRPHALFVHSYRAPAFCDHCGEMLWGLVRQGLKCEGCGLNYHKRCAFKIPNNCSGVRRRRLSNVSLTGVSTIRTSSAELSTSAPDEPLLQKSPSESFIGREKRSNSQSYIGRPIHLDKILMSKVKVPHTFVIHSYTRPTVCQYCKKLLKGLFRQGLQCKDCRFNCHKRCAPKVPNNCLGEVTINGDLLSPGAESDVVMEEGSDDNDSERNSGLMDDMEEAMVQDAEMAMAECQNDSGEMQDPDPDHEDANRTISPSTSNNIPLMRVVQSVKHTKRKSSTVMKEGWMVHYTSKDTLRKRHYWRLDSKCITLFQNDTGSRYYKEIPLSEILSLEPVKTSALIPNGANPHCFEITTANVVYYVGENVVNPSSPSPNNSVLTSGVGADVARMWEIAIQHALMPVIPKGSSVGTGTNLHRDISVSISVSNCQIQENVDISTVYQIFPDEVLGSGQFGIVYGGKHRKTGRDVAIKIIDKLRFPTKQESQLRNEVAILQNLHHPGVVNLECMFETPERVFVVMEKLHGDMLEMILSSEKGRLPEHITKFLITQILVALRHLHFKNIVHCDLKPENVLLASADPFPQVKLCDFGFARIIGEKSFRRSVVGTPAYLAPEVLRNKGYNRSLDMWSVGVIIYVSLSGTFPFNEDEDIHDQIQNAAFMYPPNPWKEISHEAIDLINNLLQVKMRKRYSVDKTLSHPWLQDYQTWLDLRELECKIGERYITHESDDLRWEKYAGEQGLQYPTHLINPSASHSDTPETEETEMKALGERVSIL

pKd [1]: 9.24 | Time [2]: 82 microsec | Activity [3]: 1.9% | Activity [4]: 19% | Activity [5]: 23% | Activity [6]: 68% | Activity [7]: 69% | Activity [8]: 69% | Activity [9]: 83% | Activity [10]: 85% | Activity [11]: 85% | Activity [12]: 88% | Activity [13]: 91% | Activity [14]: 95% | Activity [15]: 96% | Activity [16]: 96.5% | Activity [17]: 99% | Activity [18]: 101% | Activity [19]: 101% | Activity [20]: 102% | Activity [21]: 103% | Activity [22]: 103% | Activity [23]: 106% | Activity [24]: 107% | Activity [25]: 109% | Activity [26]: 111% | Activity [27]: 113% | Activity [28]: 115% | Activity [29]: 120% | Activity [30]: 129% | Activity [31]: 143% | Activity [32]: 117%
SMILES: NCCCC[C@@H](NC(=O)[C@@H](CC(=O)O)NC(=O)[C@@H](CC(=O)O)NC(=O)[C@@H](CC(=O)O)NC(=O)[C@@H](CC(=O)O)NC(=O)[C@@H](CC(=O)O)NC(=O)[C@@H](CC(=O)O)NC(=O)CCCCCNC(=O)CCC(=O)Nc1ncc(-c2ccc(C(=O)O)cc2)s1)C(=O)O

Reference: ChEMBL document CHEMBL4152360 (Bioorg Med Chem, 2018)
